US20260364040A1, “MONO- AND BIS-NITROSYLATED PROPANEDIOLS FOR USE IN THE TREATMENT OF A THROMBOEMBOLIC DISEASE” (ATTGENO AB, priority 2023, published 2026)

Columns and labels:
[1] = Circulation times and in vivo half-life estimation from injections and infusions; set-up: species or system pig
Method: Intraarterial injections in the left CCA and left CFA and central intravenous injections (PDNO 0.5-4 micromol) were used to estimate in vivo half-life of PDNO in anesthetized, instrumented pigs (n=2). Regional blood flow, mean systemic arterial pressure (MAP), end-tidal nitric oxide (ETNO) and arterial blood gases were measured.
In addition, 10 ml of 5% sodium bicarbonate solution was injected at these sites.
Between the local intraarterial infusion routes, intravenous infusions in the central venous catheter at four doses (3, 10, 30 and 100 nmol kg^−1 min^−1, 10 minutes per dose) were given for reference. There was a washout period of 60 minutes between the PDNO administration.
Primary outcome was effects on regional blood flow, systemic blood pressure and end-tidal nitric oxide (ETNO). […]
The median (25-75 percentiles) circulation times from the carotid and femoral intraarterial injection sites were to first exhalation with increased ETNO 13.5 s (12.3-15.4, n=13) s and 13.7 s (12.9-15.2, n=9), respectively, and from the central intravenous injection site 5.0 s (4.3-5.9, n=29) and 5.3 s (3.3-5.8, n=9). The circulation times between the carotid and femoral intraarterial injection sites to the central intravenous injection site were calculated to 8.5 s and 8.4 s as depicted in Table 1 below.

[2] = rabbit model, Cederqvist et al. 1994; cited from earlier work
[3] = system: VASP (Ser239 phosphorylation), NO/cyclic GMP signalling in human platelets; assay: Ser239-specific VASP phosphorylation in isolated human platelets (Western blotting); assay type: cell-based; conditions: 5 min exposure, unstimulated and SFLLRN-stimulated platelets, n=3
Method: FIG. 9: Increases in Ser 239-specific VASP phosphorylation in platelets. Suspensions of isolated human blood platelets were stimulated by either PDNO or nitroglycerine. The platelets were exposed to the NO-donors for 5 min followed by Western immuno blotting for phosphoVASP detection. These experiments were conducted in unstimulated and SFLLRN-stimulated platelets. The PAR-1 agonist was added 2 min after PDNO/nitroglycerine. The bars represent mean value and standard deviation (n=3).
In platelets and vascular smooth muscle cells, the cytoskeleton-binding protein vasodilator-stimulated phosphoprotein (VASP) is a main molecular target for NO/cyclic GMP signalling pathway. Ser239 specific phosphorylation of VASP following NO exposure of platelets is believed to be a pivotal molecular mechanism underlying anti-aggregatory/antithrombotic effects of NO. The effect of PDNO on Ser239-specific VASP phosphorylation was analysed by Western (immuno) blotting.
Aliquots of isolated platelet suspensions were exposed to either PDNO or nitroglyceine for 5 min. This series of experiments were conduced both on resting and SFLLRN-stimulated platelets.
Specifically, NO/cyclic GMP-induced phosphorylation of Ser239 on vasodilator-stimulated phosphoproteins (VASP) was detected by Western blotting. […]

[4] = system: SFLLRN (PAR-1 agonist) stimulated platelets in human whole blood; assay: Platelet aggregation in human whole blood (impedance, Multiplate aggregometer); assay type: cell-based; conditions: drug added 2 min prior to SFLLRN, impedance 10 min, AUC, n=4
Method: FIG. 8: Platelet aggregation in whole blood. Suspensions of human blood were stimulated by the PAR-1 agonist […] in the absence (open bar) and presence of either PDNO (black bar) or nitroglycerine (grey bar). The NO-donating drugs were introduced to the blood 2 min prior to SFLLRN. Platelet aggregation response was analysed as increases in impedance over a period of 10 min and is expressed as area under the curve. The bars represent mean value and standard deviation (n=4).
Potential anti-thrombotic effect of PDNO in vitro was evaluated by analysing aggregation responses to the thrombin mimetic hexapeptide SFLLRN. […]
Heparinized human or pig blood (0.5 ml) was diluted 1:1 with Krebs-Ringer glucose (KRG) buffer (isotone saline, pH 7.4). […] Platelet aggregation in vitro (human blood) and ex vivo (pig blood) was measured as increase in electrical impedance between two platinum electrodes. […]
In the in vitro experiments, PDNO or nitroglycerine (used as control drug) was introduced 2 min prior to the hexapeptide SFLLRN. […] Aggregation responses were registered during 10 min and expressed as area under curve.
Platelet aggregation in whole blood (human blood with heparin as anticoagulant) was analysed as increases in electrical resistance (impedance changes between two platinum electrodes) using a Multiplate aggregometer.

| Structure (SMILES) | correlation between in vivo generation of NO and effects on blood pressure [2] | other results |
| --- | --- | --- |
| O=C([O-])O.[Na+] [Sodium bicarbonate] | – | Circulation time (median) between intraarterial and intravenous injection site ([1]; carotid artery and intravenous): 7.0 s; Circulation time (median) between intraarterial and intravenous injection site ([1]; femoral artery and intravenous): 8.9 s |
| CCCCON=O [butyl nitrite] | significant correlation between the in vivo generation of NO and effects on blood pressure | – |
| CCON=O [ethyl nitrite] | significant correlation between the in vivo generation of NO and effects on blood pressure | – |
| CC(C)CCON=O [isoamyl nitrite] | significant correlation between the in vivo generation of NO and effects on blood pressure | – |
| CC(C)CO[N+](=O)[O-] [isobutyl nitrate] | significant correlation between the in vivo generation of NO and effects on blood pressure | – |
| CC(C)CON=O [isobutyl nitrite] | significant correlation between the in vivo generation of NO and effects on blood pressure | – |
| O=[N+]([O-])OCC(CO[N+](=O)[O-])O[N+](=O)[O-] [nitroglycerine, 1,2,3-propanetriol-nitrate] | significant correlation between the in vivo generation of NO and effects on blood pressure | Ser239-specific VASP phosphorylation [3]: not nitroglycerine provoked a significant increase in Ser239-specific VASP phosphorylation; SFLLRN-induced platelet aggregation, whole blood [4]: not nitroglycerine significantly inhibited SFLLRN-induced platelet aggregation |
